Results as given in paper PMC12396409, “Screening and hit evaluation of a microbial metabolite library against the pathogenic Plasmodium falciparum and Toxoplasma gondii parasites” (International Journal for Parasitology: Drugs and Drug …, 2025).
Where a name gives a salt, the structure may show the parent alone. Read-outs that look alike come from different tables or passages of the source. Where a SMILES comes first, the peptide text is derived from it. Bridges are numbered along the chain shown (N, C = ends). [ ]: non-standard residue; d: D form. The star is where a group is joined. Octatrienoyl(2E,4E,6E) = C/C=C/C=C/C=C/C(=O)*; Pro(4R-Me) = C[C@H]1CN[C@H](C(=O)O)C1; NMeA = CN[C@@H](C)C(=O)O

Key:
[1] = system: P. falciparum 3D7 parasites; experiment: P. falciparum growth inhibition assay, 2-cycle (120 h treatment), delayed-death screen and dose-response; assay type: cell-based, Plasmodium falciparum; settings: for activity at 2 µg/mL: Plasmodium falciparum, 3D7
[2] = system: T. gondii RH strain (RH-Tub-eYFP) tachyzoites; experiment: microbe, parasite or virus in culture; assay type: cell-based, Toxoplasma gondii; settings: 72 h, 72 h; for percent parasite growth at 2 µg/mL: Toxoplasma gondii
[3] = system: P. falciparum 3D7 parasites; experiment: P. falciparum growth inhibition assay, 1-cycle (72 h treatment), SYBR DNA staining (library screen at 2 μg/mL and dose-response); assay type: cell-based, Plasmodium falciparum; settings: for activity at 2 µg/mL: Plasmodium falciparum, 3D7
[4] = library screen at 2 μg/mL, 120 h, % growth, replicate 1
[5] = library screen at 2 μg/mL, 120 h, % growth, replicate 2
[6] = library screen at 2 μg/mL, % growth, replicate 1
[7] = library screen at 2 μg/mL, % growth, replicate 2
[8] = library screen at 2 μg/mL, 72 h, % growth, replicate 1
[9] = library screen at 2 μg/mL, 72 h, % growth, replicate 2
[10] = P. falciparum 3D7, 120 h, parasite screen at 2 μg/mL, % growth, replicate 1
[11] = P. falciparum 3D7, 120 h, parasite screen at 2 μg/mL, % growth, replicate 2
[12] = T. gondii, parasite screen at 2 μg/mL, % growth, replicate 1
[13] = T. gondii, parasite screen at 2 μg/mL, % growth, replicate 2
[14] = P. falciparum 3D7, 72 h, parasite screen at 2 μg/mL, % growth, replicate 1
[15] = P. falciparum 3D7, 72 h, parasite screen at 2 μg/mL, % growth, replicate 2
[16] = P. falciparum, 120 h, screen at 2 μg/mL, replicate 1
[17] = P. falciparum, 120 h, screen at 2 μg/mL, replicate 2
[18] = T. gondii, screen at 2 μg/mL, replicate 1
[19] = T. gondii, screen at 2 μg/mL, replicate 2
[20] = P. falciparum, 72 h, screen at 2 μg/mL, replicate 1
[21] = P. falciparum, 72 h, screen at 2 μg/mL, replicate 2

Cc1nnc2n1-c1sc(CCC(=O)N3CCOCC3)cc1C(c1ccccc1Cl)=NC2 [WEB 2086]
activity at 2 µg/mL ([1]; P. falciparum, 120 h, screen at 2 μg/mL, replicate 1, read-out: Pf_120h_%Growth_Rep1): 157% | activity at 2 µg/mL ([1]; P. falciparum, 120 h, screen at 2 μg/mL, replicate 2, read-out: Pf_120h_%Growth_Rep2): 84.4% | percent parasite growth at 2 µg/mL ([2]; T. gondii, screen at 2 μg/mL, replicate 1, read-out: Tg_72h_%Growth_Rep1): 91.8% | percent parasite growth at 2 µg/mL ([2]; T. gondii, screen at 2 μg/mL, replicate 2, read-out: Tg_72h_%Growth_Rep2): 110% | activity at 2 µg/mL ([3]; P. falciparum, 72 h, screen at 2 μg/mL, replicate 1, read-out: Pf_72h_%Growth_Rep1): 87.3% | activity at 2 µg/mL ([3]; P. falciparum, 72 h, screen at 2 μg/mL, replicate 2, read-out: Pf_72h_%Growth_Rep2): 87.4%

C/C=C/C=C/[C@H]1Cc2cc(O)cc(O)c2O1 [Asperfuran]
Pf_120h_%Growth_Rep1 [1, 4]: 70.89% | Pf_120h_%Growth_Rep2 [1, 5]: 94.19% | Tg_72h_%Growth_Rep1 [2, 6]: 65.57% | Tg_72h_%Growth_Rep2 [2, 7]: 59.68% | Pf_72h_%Growth_Rep1 [3, 8]: 81.82% | Pf_72h_%Growth_Rep2 [3, 9]: 86.77%

CC1=CCCC(C)C(O)C(C)C(O)CCC=CC(C)C(O)C=CC(C)C(O)C(C)=CC(O[C@H]2O[C@H](CO)[C@@H](O)[C@H](O)[C@@H]2O)C(O)CC(O)CC(O)CC(O)C(C)C(O)C(C)C(O)CC(O)CC(O)C=CCC(C(C)C(O)CCCN)OC1=O (stereo partly drawn) [Desertomycin A]
Pf_120h_%Growth_Rep1 [1, 4]: 93.27% | Pf_120h_%Growth_Rep2 [1, 5]: 101.55% | Tg_72h_%Growth_Rep1 [2, 6]: 97.84% | Tg_72h_%Growth_Rep2 [2, 7]: 106.51% | Pf_72h_%Growth_Rep1 [3, 8]: 84.25% | Pf_72h_%Growth_Rep2 [3, 9]: 90.28%

Cc1cc(O)cc(O)c1C(=O)O [BIA-O1657]
Pf_120h_%Growth_Rep1 [1, 10]: 95.39% | Pf_120h_%Growth_Rep2 [1, 11]: 131.31% | Tg_72h_%Growth_Rep1 [2, 12]: 114.94% | Tg_72h_%Growth_Rep2 [2, 13]: 95.01% | Pf_72h_%Growth_Rep1 [3, 14]: 83.41% | Pf_72h_%Growth_Rep2 [3, 15]: 79.75%

C/C=C/C=C/C=C/C(=O)N[C@@H](Cc1ccccc1)C(=O)N[C@H]1COC(=O)[C@@H]2C[C@@H](C)CN2C(=O)[C@H](C)NC(=O)[C@H](C)N(C)C(=O)[C@@H]2CCCN2C1=O [A 54556A] ({Octatrienoyl(2E,4E,6E)}-FSP[NMeA]A[Pro(4R-Me)]; ester 2-C)
Pf_120h_%Growth_Rep1 [1, 4]: 58.56% | Pf_120h_%Growth_Rep2 [1, 5]: 46.42% | Tg_72h_%Growth_Rep1 [2, 6]: 149.51% | Tg_72h_%Growth_Rep2 [2, 7]: 92.23% | Pf_72h_%Growth_Rep1 [3, 8]: 73.00% | Pf_72h_%Growth_Rep2 [3, 9]: 56.16%

C[C@H]1C(=O)O[C@@H]2CCN3CC=C(COC(=O)[C@](C)(O)[C@]1(C)O)[C@H]23 [BIA-M1801]
Pf_120h_%Growth_Rep1 [1, 10]: 81.80% | Pf_120h_%Growth_Rep2 [1, 11]: 104.58% | Tg_72h_%Growth_Rep1 [2, 12]: 108.79% | Tg_72h_%Growth_Rep2 [2, 13]: 79.49% | Pf_72h_%Growth_Rep1 [3, 14]: 85.52% | Pf_72h_%Growth_Rep2 [3, 15]: 78.69%

Cc1c2c(c(O)c3c(O)cccc13)C(=O)[C@]1(O)C(=O)C(C(N)=O)=C(O)[C@@H](N(C)C)[C@@H]1C2 [Anhydrotetracycline hydrochloride]
activity at 2 µg/mL ([1]; library screen at 2 μg/mL, 120 h, % growth, replicate 1, read-out: Pf_120h_%Growth_Rep1): 52.2% | activity at 2 µg/mL ([1]; library screen at 2 μg/mL, 120 h, % growth, replicate 2, read-out: Pf_120h_%Growth_Rep2): 57% | percent parasite growth at 2 µg/mL ([2]; library screen at 2 μg/mL, % growth, replicate 1, read-out: Tg_72h_%Growth_Rep1): 89.6% | percent parasite growth at 2 µg/mL ([2]; library screen at 2 μg/mL, % growth, replicate 2, read-out: Tg_72h_%Growth_Rep2): 88.3% | activity at 2 µg/mL ([3]; library screen at 2 μg/mL, 72 h, % growth, replicate 1, read-out: Pf_72h_%Growth_Rep1): 77.2% | activity at 2 µg/mL ([3]; library screen at 2 μg/mL, 72 h, % growth, replicate 2, read-out: Pf_72h_%Growth_Rep2): 74%

COC(=O)[C@]1(Cc2ccc(O)cc2)OC(=O)C(O)=C1c1ccc(O)cc1 [Butyrolactone II]
Pf_120h_%Growth_Rep1 [1, 16]: 89.95% | Pf_120h_%Growth_Rep2 [1, 17]: 95.11% | Tg_72h_%Growth_Rep1 [2, 18]: 129.35% | Tg_72h_%Growth_Rep2 [2, 19]: 92.93% | Pf_72h_%Growth_Rep1 [3, 20]: 83.73% | Pf_72h_%Growth_Rep2 [3, 21]: 86.44%

O=C(O)/C=C/c1ccc(O)cc1 [Coumaric acid, p-]
Pf_120h_%Growth_Rep1 [1, 16]: 65.95% | Pf_120h_%Growth_Rep2 [1, 17]: 100.33% | Tg_72h_%Growth_Rep1 [2, 18]: 117.43% | Tg_72h_%Growth_Rep2 [2, 19]: 104.71% | Pf_72h_%Growth_Rep1 [3, 20]: 85.52% | Pf_72h_%Growth_Rep2 [3, 21]: 91.08%

CC(=O)O[C@H]1C[C@]2(C)[C@H]3CC[C@]4(C)Oc5oc(C)cc(=O)c5C[C@H]4[C@]3(C)CC[C@H]2C(C)(C)[C@H]1OC(C)=O [Sartorypyrone B]
Pf_120h_%Growth_Rep1 ([1]; P. falciparum, 120 h, parasite screen 2 μg/mL, % growth, replicate 1): 68.83% | Pf_120h_%Growth_Rep2 ([1]; P. falciparum, 120 h, parasite screen 2 μg/mL, % growth, replicate 2): 125.68% | Tg_72h_%Growth_Rep1 ([2]; T. gondii, parasite screen 2 μg/mL, % growth, replicate 1): 114.72% | Tg_72h_%Growth_Rep2 ([2]; T. gondii, parasite screen 2 μg/mL, % growth, replicate 2): 87.54% | Pf_72h_%Growth_Rep1 ([3]; P. falciparum, 72 h, parasite screen 2 μg/mL, % growth, replicate 1): 77.80% | Pf_72h_%Growth_Rep2 ([3]; P. falciparum, 72 h, parasite screen 2 μg/mL, % growth, replicate 2): 111.47%
